# Reference: article PMC3824214, “A Novel Factor Xa-Inhibiting Peptide from Centipedes Venom” (International Journal of Peptide Research and Therapeutics, 2013)
# “And” between values parts separate entries of the source, which are not always exact repeats. Identical values can stand only once. Like-named read-outs stand apart in the source and are kept apart here. Marks after values point to notes of the source that are not given here.
# Experiments:
# [1] = tested on: normal citrated PPP (platelet poor plasma); assay type: biochemical, ICR mice; settings: for APTT: sample diluted in PBS pH 8.34, mouse PPP, 3 min at 37 °C, triplicates, mean ± SE
# Experimental: (§1) Blood was drawn by Eyeball from ICR mice. The blood was separately centrifuged at 2,500×g for 10 min to obtain platelet poor plasma (PPP). For the in vitro aPTT assay, normal citrated PPP (50 μl) was incubated with sample solution (8, 6, 4, 2, 1 mg/ml, previously diluted in PBS, pH 8.34, 50 μl) and 100 μl aPTT reagent for 3 min at 37 °C. Clotting time was immediately recorded after the addition of 100 μl of 20 mM CaCl2. For the in vitro PT assay, normal citrated PPP (25 μl) was incubated with sample solution (8, 6, 4, 2, 1 mg/ml, previously diluted in PBS, pH 8.34, 25 μl) for 3 min at 37 °C. Clotting time was immediately recorded after the addition of 50 μl of PT reagent (Majdoub et al. [2009]). All coagulation assays were performed in triplicates. Heparin was used as a positive control, and PBS (pH 8.34) as model control. For ex vivo coagulation assays, samples were dissolved in saline and were intravenously injected (10 or 20 mg/kg) in ICR mice (6 animals/group). Five and 24 h after drug administration, blood was collected (drawn by eyeball), immediately centrifuged (3,000 rpm, 15 min), and the plasma was used to measure the aPTT and PT as previously described (Batista et al. [2010]).
# [2] = tested on: normal citrated PPP (platelet poor plasma); assay: in vitro PT clotting assay; assay type: biochemical, ICR mice; settings: sample diluted in PBS pH 8.34, mouse PPP, 3 min at 37 °C, triplicates, mean ± SE
# Experimental: as §1
# [3] = tested on: whole blood clotting; assay: Whole blood clotting time in vivo, capillary glass tube method; parameters: species or system mice; settings: for Effect on whole blood clotting time: TNGYT 10 and 20 mg/kg, heparin 20 mg/kg, versus control group, P < 0.01; for CT (clotting time): six per group, mean ± SE, saline 273.2 s
# Experimental: Whole blood clotting time (CT) in mice was measured by capillary glass tube method (Li et al. [2004]). Mice (18–22 g body weight) were divided into four groups (both sexes, six per group). Two groups were received intravenous injection of 20 and 10 mg/kg body weight of the purified peptide for four consecutive days. Other groups were received normal saline and 20 mg/kg body weight of heparin (the positive control), respectively. Fifteen minutes after the last administration (positive control after 2 h), blood samples were collected through the retro-orbital plexus with a glass capillary and kept on a slide to allow for clotting. Stirring the blood with a dry needle every 30 s until needle wire can provoke a fibrous protein, when is defined as clotting time.
# [4] = tested on: bleeding time; assay: Bleeding time in vivo, tail cut; parameters: species or system ICR mice; settings: for BT (bleeding time): 6 animals/group, mean ± SE, saline 315.2 s
# Experimental: The mice (both sexes, 18–22 g) were randomly divided into four groups. The samples were intravenously injected (10 or 20 mg/kg) in ICR mice (6 animals/group) once a day in four consecutive days. Fifteen minutes after the last administration (positive control after 2 h), the mice tail was marked with a tag in the distance of 3 mm to after peak, then cut in the mark. Then the tip of the tail was immersed in saline at 37 °C. Record the time from cutting the tip of the tail to stopping bleeding, the interval was called bleeding time (Kogushi et al. [2011]). Heparin was used as positive control, and 0.9 % saline as model control.
# [5] = from S. subspinipes mutilans; ref Kong et al. [2013]; cited from earlier work
# Text: The centipede contains many bioactive components, including 5-hydroxytryptamine, histamine, lipids, polysaccharides, and various enzymes (e.g. proteinases and esterases) (Knysak et al. [1998]; Gomes et al. [1983]). They have been widely used as traditional folk medicine to treat thrombotic diseases in China (Pemberton [1999]) for several hundred years. […] Wu et al. ([2009]) found centipede acidic protein (CAP) signif ...
# [6] = tested on: plasma of treated mice (aPTT); assay: ex vivo aPTT assay; assay type: in vivo, ICR mice; settings: for APTT: ex vivo, ICR mice, 6 animals/group, mean ± SE
# Experimental: as §1
# [7] = tested on: plasma of treated mice (PT); assay: ex vivo PT assay; assay type: in vivo, ICR mice; settings: for PT: ex vivo, ICR mice, 6 animals/group, mean ± SE
# Experimental: as §1
# [8] = target: T1, human FXa (Homo sapiens, UniProt P00742); assay: FXa inhibition assay, chromogenic substrate S-2222; assay type: biochemical
# T1 construct: Purified human FXa; purchased HYPHEN BioMed (Neuvile sur Oise, France)
# T1 sequence (P00742 235-488 limits assumed): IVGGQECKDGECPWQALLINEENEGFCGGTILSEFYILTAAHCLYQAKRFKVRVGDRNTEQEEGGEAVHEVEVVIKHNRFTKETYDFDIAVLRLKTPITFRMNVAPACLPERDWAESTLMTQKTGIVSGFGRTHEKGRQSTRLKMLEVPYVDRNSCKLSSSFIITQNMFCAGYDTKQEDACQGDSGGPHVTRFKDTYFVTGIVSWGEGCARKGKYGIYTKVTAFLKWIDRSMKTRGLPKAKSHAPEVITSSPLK
# T1 sequence (P00742 41-179 partner limits assumed): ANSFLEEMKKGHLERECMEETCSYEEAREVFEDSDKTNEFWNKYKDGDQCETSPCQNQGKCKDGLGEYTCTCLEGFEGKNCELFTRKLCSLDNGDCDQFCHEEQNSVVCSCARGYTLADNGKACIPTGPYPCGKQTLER
# Text: Sephadex G-50 was obtained from Pharmacia (Uppsala, Sweden). Purified human FXa and chromogenic substrate of FXa (S2222) were purchased from HYPHEN BioMed (Neuvile sur Oise, France). Mice of both sexes were from Qinglongshan animal center (Nanjing, Jiangsu Province, China). All the animal protocols were approved by the Animal Care and Use Committee at China Pharmaceutical University. All other chemicals and reagents were at analytical grade.
# Chromogenic substrate method was used to measure the FXa-inhibiting activity. Inhibition was determined by FXa residual activity on the chromogenic substrate BIOPHEN CS-11 (S-2222) (22), which liberates the chromophoric group pNA (p-nitroaniline) (van Wijk and Smit [1984]). Different concentrations of the peptide (5–60 mg/ml) were incubated with FXa for 30 min at 37 °C in PBS (pH 8.34). The reaction was initiated by adding the substrate into the peptide solution (Ibrahima et al. [2001]). The absorbance at 405 nm was recorded every 0.5 min in 5 min. In A–t curve, the curve slope was considered as reaction rate (v).
# Inhibition rate(%)=V0- Vi/V0×100%, V0 is the rate of PBS (pH 8.34, model control), and Vi is the rate of peptide.
substance,measurement,setting,value
Heparin [reference compound],APTT,"[1]; in vitro, 1 mg/ml",>60.0** s
same,PT,[2]; 1 mg/ml,>60.0** s
same,Effect on whole blood clotting time,[3],significantly prolong whole blood clotting time
same,CT (clotting time),"[3]; positive control 20 mg/kg, 2 h after administration, mice",718.8 ± 60.15 s
same,BT (bleeding time),"[4]; positive control 20 mg/kg, 2 h after last administration",804.3 ± 87.7 s
Ser-Gln-Leu (SQL) [anti-thrombotic peptide isolated from S. subspinipes mutilans],Anti-thrombotic activity,[5],anti-thrombotic
Thr-Asn-Gly-Tyr-Thr (TNGYT),"Biological activity, natural vs synthesized peptide (aPTT and PT assays)","[1]; aPTT and PT assays, data in Table 1 of Supplementary Data",the same biological activity
same,"Potency relative to heparin, fold lower","[1]; in vitro assay, lower than heparin",at least 8 -folded
same,APTT,"[1]; in vitro, 1 mg/ml",36.7 ± 1.5 s
same,APTT,"[1]; in vitro, 2 mg/ml",44.0 ± 2.0 s
same,APTT,"[1]; in vitro, 4 mg/ml",44.0 ± 1.0 s
same,APTT,"[1]; in vitro, 8 mg/ml, 0.9 % saline control 33.3 s",57 s and 57.0 ± 2.0 s
same,Action on aPTT and PT relative to heparin,"[1]; in vitro, aPTT and PT, versus heparin (1 mg/ml)",lower than the positive control heparin
same,PT,[2]; 1 mg/ml,14.7 ± 0.6 s
same,PT,[2]; 2 mg/ml,15.3 ± 1.5 s
same,PT,[2]; 4 mg/ml,17.7 ± 0.6 s
same,PT,"[2]; 8 mg/ml, 0.9 % saline control 12.7 s",23.3 s and 23.3 ± 1.5 s
same,Alteration of aPTT ex vivo,"[6]; 10 or 20 mg/kg i.v., 5 and 24 h, mice",increases in the aPTT were observed
same,APTT,"[6]; 5 h after 10 mg/kg i.v., saline 49.0 s",59.0 ± 2.0 s
same,APTT,"[6]; 5 h after 20 mg/kg i.v., saline 49.0 s",65.7 ± 3.1 s
same,APTT,"[6]; 24 h after 10 mg/kg i.v., saline 47.0 s",49.3 ± 1.5 s
same,APTT,"[6]; 24 h after 20 mg/kg i.v., saline 47.0 s",51.3 ± 2.3 s
same,Alteration of PT ex vivo,"[7]; 10 or 20 mg/kg i.v., mice",no significant alterations were observed in the PT
same,PT,"[7]; 5 h after 10 mg/kg i.v., saline 15.7 s",16.7 ± 0.6 s
same,PT,"[7]; 24 h after 10 mg/kg i.v., saline 17.7 s",18.7 ± 1.5 s
same,PT,"[7]; 24 h after 20 mg/kg i.v., saline 17.7 s",18.3 ± 0.6 s
same,CT (clotting time),"[3]; 10 mg/kg i.v., four consecutive days, 15 min after last administration, mice",389.0 ± 35.74 s
same,CT (clotting time),"[3]; 20 mg/kg i.v., four consecutive days, 15 min after last administration, mice",463.0 ± 48.8 s
same,Effect on whole blood clotting time,[3],significantly prolong whole blood clotting time
same,Effect in prolonging the clotting time compared to heparin,"[3]; same dose of 20 mg/kg, i.v., mice",about 50%
same,BT (bleeding time),"[4]; 10 mg/kg i.v. once a day, four consecutive days, 15 min after last administration",447.5 ± 78.1 s
same,BT (bleeding time),"[4]; 20 mg/kg i.v. once a day, four consecutive days, 15 min after last administration",549.7 ± 60.9 s
same,Effect on bleeding time,"[4]; 10 and 20 mg/kg, versus model control, P < 0.01",significantly prolong the bleeding time
same,Risk of bleeding relative to heparin,"[4]; equal dose 20 mg/kg, inferred from bleeding time",lower than that of heparin
same,Inhibition of FXa activity,"[8]; 60 mg/ml, 30 min at 37 °C, PBS pH 8.34, substrate S-2222, absorbance 405 nm",59.75%
same,Inhibition rate of FXa relative to other protein/peptide FXa inhibitors,"[8]; versus Ac-AP-12, Amblyomin-X, Nymphal FXa inhibitor, AduNAP4",lower than FXa inhibitors mentioned above
